Reference: US4732898A, “2-(2-aryl-2-oxoalkylidene) analogs of-3,5-pyridinedicarboxylic acid dialkyl esters useful for treatment of cardiovascular disorders” (Warner-Lambert Company, priority 1987, dated 1988)
Read-outs that look alike come from different tables or passages of the source.

Key:
[1] = system: isolated Langendorff rat heart; assay: inotropic and vascular activities in the isolated Langendorff rat heart preparation (CVIH); settings: isolated perfused rat heart
Description: TEST FOR INOTROPIC, CHRONOTROPIC, AND VASCULAR ACTIVITIES IN THE ISOLATED LANGENDORFF RAT HEART PREPARATION (CARDIOVASCULAR ISOLATED HEART - CVIH)
Male rats (400-600 gms) are pretreated with 2000 units Na heparin (Parke-Davis) and anesthetized with Na pentobarbital (50 mg/kg, Butler Co.) administered intraperitoneally. Once anesthetized, the rat heart is rapidly excised, the ascending aorta fitted to the aorta perfusion cannula, and secured with a ligature. The coronary arteries are perfused initially at a rate of about 15 ml/min for two to three minutes, after which they are perfused at constant pressure of 70 mm Hg and temperature of 37° C. The electrocardiogram (ECG) is recorded using two platinum electrodes positioned at the base and apex of the left ventricle (LV). The LV is instrumented via the mitral valve with a 4F Millar catheter tip pressure transducer. The catheter is advanced to the apex then withdrawn slightly. Once properly positioned, the catheter is anchored to the perfusion cannulae with an alligator clip. A second heart is excised, cannulated, and perfused by the same method outlined above. Both hearts are tested in parallel. The standard physiological salt solution (PSS) is a modified Krebs Henseleit bicarbonate buffer of the following composition in mM concentration: NaCl, 127; NaHCO^3, 25; dextrose, 5.5; Na Pyruvate, 2.0; KCl, 4.7; MgSO^4, 1.1; KH 2PO^4, 1.2; CaCl^2 ·2H^2, 2.5; CaNa^2 EDTA, 0.05.
A 30-minute stabilization period is observed before starting the test protocol.
A microprocessor control system is used as a servo mechanism which permits coronary perfusion pressure (CPP) and drug concentration to be maintained constant independent of changes in coronary flow. The level at which CPP and drug concentration are maintained can be changed by commands communicated through the microprocessor keyboard. Dose-response curves are carried out by perfusing concentrated drug solution (DC) at rates proportional to total coronary flow (CFT). Drug concentrations are increased by proportionate increases in the rate of DC infusion over CFT via the microprocessor keyboard. The proportional flow rates for DC:CFT are about 0.00005:1 at the low end and 0.0015:1 at the high end of the dose response curve.
Dose-response curves encompassing at least two log units are carried out in one-half log increments starting at a subthreshold dose and ending at a dose which produces near maximal response.
Measurements for CVIH are maximum positive first derivative of LVP (LV+dP/dtmax), heart rate (HR), and coronary flow (CF). Units are: LV+dP/dtmax, millimeters of mercury/second (mm Hg/sec); HR, beats/minute (bpm) and CF, milliliters/minute (ml/min). LV+dP/dtmax is derived from the LVP signal by a differential amplifier and recorded. HR is calculated from the ECG strip chart recording and CF is calculated by recording analog outputs from pumps 1 and 2. Outputs from pump #1 =CFT and the output from pump #2 =CF for heart B (CFB). CF for heart A (CFA) is calculated ([…]). All pumps are calibrated weekly or when pump tubing is replaced.
Compounds are solubilized in DMSO and diluted with water when possible. EC^25 data are obtained from data that is digitized and averaged in a conventional manner.

dihydropyridine receptor = assay: inhibition of [3H]-nitrendipine binding in rat brain homogenate; settings: read-out: IC50 (index of dihydropyridine receptor affinity; inhibition of [3H]-nitrendipine binding)
Text: *Index of dihydropyridine receptor affinity: IC50 for inhibition of
[^3 H]--nitrendipine binding in rat brain homogenate.

anesthetized dog = assay: in vivo myocardial inotropic activity in the anesthetized dog; settings: 1 mg/kg, femoral vein, pentobarbital anesthetized dog
Description: TEST FOR IN VIVO MYOCARDIAL INOTROPIC ACTIVITY IN THE ANESTHETIZED DOG
Adult mongrel dogs of either sex are anesthetized with pentobarbital, 35 mg/kg, IV, and are maintained under anesthesia with a continuous infusion of pentobarbital, 3.5 mg/kg/hr. The trachea is intubated, but the animals are permitted to breathe spontaneously. A cannula is inserted into the femoral vein for administering test agents. A Millar catheter tip pressure transducer or a fluid filled catheter is inserted into the ascending aorta via the femoral artery for measuring pressure. A Millar catheter tip pressure transducer is passed into the left ventricle via the left carotid artery for measuring left ventricular blood pressure. Needle electrodes are placed subcutaneously for recording a lead II electrocardiogram. Before administering test agents, control data is acquired over a period of at least thirty minutes.
The test agent is dissolved in dimethylacetamide. Each dose is administered in a volume of 0.5 ml over a period of one minute. Appropriate vehicle controls are also administered.

[2] = system: isolated Langendorff rat heart; assay: inotropic and vascular activities in the isolated Langendorff rat heart preparation (CVIH); settings: LV+dP/dtmax; isolated perfused rat heart; EC20 instead of EC25; read-out: EC20 Contractility
[3] = LV+dP/dtmax, read-out: EC25 Contractility
[4] = coronary flow, read-out: EC25 Flow

| Compound | IC50 (dihydropyridine receptor) [nM] | EC25 [1, 3] [nM] | EC25 [1, 4] [nM] | decrease in blood pressure (anesthetized dog) [%] | increase in contractility (anesthetized dog) [%] | increase in heart rate (anesthetized dog) [%] | EC20 [2] [nM] |
| --- | --- | --- | --- | --- | --- | --- | --- |
| CCOC(=O)C1=C(C)N/C(=C\C(=O)c2ccccc2)C(C(=O)OCC)C1c1ccccn1 (racemic) [Example 16, (2Z,3α,4β)-(±)-Diethyl-1,2,3,4-tetrahydro-6-methyl-2-[2-oxo-2-phenylethylidene]-4-[2-pyridyl]-3,5-pyridinedicarboxylate] | 25 | 1000 | 1000 |  |  |  |  |
| CCOC(=O)C1=C(C)N/C(=C\C(=O)c2ccncc2)[C@@H](C(=O)OCC)[C@@H]1c1ccccc1C(F)(F)F (relative stereo) [Example 2] | 20 | > 3000 | < 100 | 21 | 99 | 67 |  |
| CCOC(=O)C1=C(C)N/C(=C\C(=O)c2ccc(Cl)cc2)[C@@H](C(=O)OCC)[C@@H]1c1ccccc1C(F)(F)F (relative stereo) [Example 3, (2Z,3α,4β)-Diethyl-2-[2-(4-chlorophenyl)-2-oxoethylidene]-1,2,3,4-tetrahydro-6-methyl-4-[2-(trifluoromethyl)phenyl]-3,5-pyridinedicarboxylate] | 190 | < 100 | < 100 |  |  |  |  |
| CCOC(=O)C1=C(C)N/C(=C\C(=O)c2ccc(F)cc2)[C@@H](C(=O)OCC)[C@@H]1c1ccccc1C(F)(F)F (relative stereo) [Example 4, (2Z,3α,4β)-Diethyl-2-[2-(4-fluorophenyl)-2-oxoethylidene]-1,2,3,4-tetrahydro-6-methyl-4-[2-(trifluoromethyl)phenyl]-3,5-pyridinedicarboxylate] | 52 | > 3000 | 300 |  |  |  |  |
| CCOC(=O)C1=C(C)N/C(=C\C(=O)c2ccc(N(C)C)cc2)[C@@H](C(=O)OCC)[C@@H]1c1ccccc1C(F)(F)F (relative stereo) [Example 6, (2Z,3α,4β)-(±) -Diethyl-1,2,3,4-tetrahydro-6-methyl-2-[2-oxo-2-4-(dimethylamino)phenyl)ethylidene]-4-[2-(trifluoromethyl)phenyl]-3,5-pyridine-dicarboxylate] |  | > 3000 | 200 |  |  |  |  |
| CCOC(=O)[C@H]1/C(=C/C(=O)c2ccccc2)NC(C)=C([N+](=O)[O-])[C@@H]1c1ccccc1C(F)(F)F (relative stereo) [Example 7, (2Z,3α,4β)-(±)-1,2,3,4-Tetrahydro-6-methyl-5-nitro-2-[2-oxo-2-phenylethylidene]-4-[2-(trifluoromethyl)phenyl]-3-pyridinedicarboxylic acid ethyl ester] | 130 | > 3000 | 100 |  |  |  |  |
| CCOC(=O)C1=C(C)N/C(=C\C(=O)c2ccccc2)[C@@H](C(=O)c2ccccc2)[C@@H]1c1ccccc1C(F)(F)F (relative stereo) [Example 9, (4α,5β,6Z)-(±)-Ethyl-5-benzoyl-1,4,5,6-tetrahydro-2-methyl-6-(2-oxo-2-phenylethylidene)-4-[2-trifluoromethyl)phenyl]3-pyridinecarboxylate] | 110 | 1200 | 400 |  |  |  |  |
| CCOC(=O)[C@@H]1/C(=C2\CCc3ccccc3C2=O)NC(C)=C(C#N)[C@H]1c1ccccc1C(F)(F)F (relative stereo) [Example 11] | > 1000 |  | 1000 |  |  |  | 1000 |
| CCOC(=O)C1=C(C)NC(=C2CCc3ccccc3C2=O)[C@@H](C(=O)OCC)[C@@H]1c1ccccc1C(F)(F)F (relative stereo) [Example 12] | > 1000 |  |  |  |  |  |  |
| CCOC(=O)C1=C(C)N/C(=C\C(=O)c2ccccc2)[C@@H](C(=O)OCC)[C@@H]1c1cccc([N+](=O)[O-])c1 (relative stereo) [Example 14, (2Z,3α,4β)-(±)-Diethyl-1,2,3,4-tetrahydro-6-methyl-2-[2-oxo-2-phenylethylidene]-4-[3-nitrophenyl]-3,5-pyridinedioarboxylate] | 85 | 1000 | 1000 |  |  |  |  |

Now from value to compound, other results behind:

| IC50 (dihydropyridine receptor) [nM] | Compound | EC25 [1, 3] [nM] | EC25 [1, 4] [nM] | decrease in blood pressure (anesthetized dog) [%] | increase in contractility (anesthetized dog) [%] | increase in heart rate (anesthetized dog) [%] | EC20 [2] [nM] |
| --- | --- | --- | --- | --- | --- | --- | --- |
| 280 | CCOC(=O)C1=C(C)N/C(=C\C(=O)c2ccccc2)[C@@H](C(=O)OCC)[C@@H]1c1ccccc1C(F)(F)F (relative stereo) [Example 1, (2Z,3α,4β)-(±)-Diethyl-1,2,3,4-tetrahydro-6-methyl-2-(2-oxo-2-phenylethylidene)-4-[2-(trifluoromethyl)-phenyl]-3,5-pyridinedicarboxylate] | 100 | 300 |  |  |  |  |
| 360 | CCOC(=O)C1=C(C)N/C(=C\C(=O)c2ccc(C)cc2)[C@@H](C(=O)OCC)[C@@H]1c1ccccc1C(F)(F)F (relative stereo) [Example 5, (2Z,3α,4β)-Diethyl-2-[2-(4-methylphenyl)-2-oxoethylidene]-1,2,3,4-tetrahydro-6-methyl-4-[2(trifluoromethyl)phenyl]-3,5-pyridinedicarboxylate] | > 3000 | 130 |  |  |  |  |
| > 1000 | CC1=C([N+](=O)[O-])[C@H](c2ccccc2C(F)(F)F)[C@@H](C(=O)c2ccccc2)/C(=C/C(=O)c2ccccc2)N1 (relative stereo) [Example 8, [trans-(Z)]-2-[3-Benzoyl-3,4-dihydro-6-methyl-5-nitro-4-[2-(trifluoromethyl)phenyl]-2-(1H)pyridinylidene]1-phenylethanone] | > 3000 | 300 |  |  |  |  |
| > 1000 | CCOC(=O)[C@@H]1/C(=C/C(=O)c2ccccc2)NC2=C(C(=O)CCC2)[C@H]1c1ccccc1C(F)(F)F (relative stereo) [Example 10] | 2000 | 1400 |  |  |  |  |
| 180 | CCOC(=O)C1=C(C)N/C(=C\C(=O)c2ccccc2)[C@@H](C(=O)OCC)[C@@H]1c1cccc(Cl)c1Cl (relative stereo) [Example 15, (2Z,3α,4β)-(±)-Diethyl-1,2,3,4-tetrahydro-6-methyl-2-[2-oxo-2-phenylethylidene]-4-2,3-dichlorophenyl]-3,5-pyridinedicarboxylate] | 1000 | 1000 |  |  |  |  |
| 39 | (2Z,3α,4β)-(±)-Diethyl-1,2,3,4-tetrahydro-6-methyl-2-[2-oxo-2-phenylethylidene]-4-[2-nitrophenyl-3,5-pyridinedicarboxylate [Example 13] | 1000 | 1000 |  |  |  |  |
